Experimental data taken from patent publication US9198845B2, “Glutamine derivatives as deodorants” (Givaudan S.A., priority 2010, dated 2015).
Read-outs that look alike come from different tables or passages of the source.

Assays:
Assay type in all cases: cell-based
Corynebacterium Ax 20 = assay: Inhibition of release of 3-hydroxy-3-methyl-hexanoic acid from Nα-(3-hydroxy-3-methyl-hexanoyl)-glutamine by bacterial cells (GC-analysis); details: for inhibition at 10 ppm / inhibition at 100 ppm / inhibition at 500 ppm / inhibition at 1000 ppm: Corynebacterium; for inhibition at 500 ppm: 500 ppm test compound; for inhibition at 1000 ppm: 1000 ppm test compound; for kind of inhibition (true inhibitor or alternative substrate): conclusion from Tables 1 and 2, prolonged preincubation; for IC 50 (Concentration for 50% inhibition of malodour release): estimated from the data in Table 1; for inhibitory activity compared to compound II: relative to compound II; for inhibition of malodour release: Compound Ia; for efficacy as inhibitors: general statement in the description
Protocol: (§1) Corynebacterium Ax 20 was grown overnight, harvested and resuspended in a phosphate buffer (50 mM, pH 7.5). Different compounds were dissolved in dimethylsulfoxide and added to the cells at a final concentration of 10 ppm, 100 ppm 500 ppm and 1000 ppm. The cells were then preincubated with the test agent for 30 min, 4 h, 8 h or 24 h. After this pre-incubation period, the natural substrate Nα-(3-hydroxy-3-methyl-hexanoyl)-glutamine was added (1 mM final concentration) and the cells were further incubated for 90 min. The released 3-hydroxy-3-methyl-hexanoic acid was determined by GC-analysis and compared to control samples to assess the […] malodor reducing capacity of a given compound in the bacterial cells. The samples were then further analysed to determine the cleavage of the synthetic compound by the action of the bacterial enzymes.

Ax52 = assay: Inhibition of release of 3-hydroxy-3-methyl-hexanoic acid in different bacterial species; details: Corynebacterium mucifaciens
Protocol: as §1, with “The cells were then preincubated with the test agent for 30 min, 4 h, 8 h or 24 h.” left out
(§2) The inhibition of malodour release was tested on different bacterial species, all isolated from the human axilla. The method from Example 2 was used.

Ax73 = assay: as above; details: Corynebacterium coyleae
Protocol: as §1, with “The cells were then preincubated with the test agent for 30 min, 4 h, 8 h or 24 h.” left out
as §2

Ax30 = assay: as above; details: Arthrobacter woluwensis
Protocol: as §1, with “The cells were then preincubated with the test agent for 30 min, 4 h, 8 h or 24 h.” left out
as §2

Ax43 = assay: as above; details: Corynebacterium tuberculostearicum
Protocol: as §1, §2

[1] = test system: Ax20, Ax30, Ax43, Ax52, Ax73; assay: Inhibition of release of 3-hydroxy-3-methyl-hexanoic acid, average over bacterial species; details: for inhibition at 10 ppm / inhibition at 100 ppm: average of Ax20, Ax30, Ax43, Ax52, Ax73
Protocol: as §1, with “The cells were then preincubated with the test agent for 30 min, 4 h, 8 h or 24 h.” left out
as §2

[2] = AX20, preincubation 0.5 h, 10 ppm test compound, read-out: % inhibition of the release of 3-hydroxy-3-methyl-hexanoic acid
[3] = AX20, preincubation 0.5 h, 100 ppm test compound, read-out: % inhibition of the release of 3-hydroxy-3-methyl-hexanoic acid
[4] = AX20, preincubation 4 h, 10 ppm test compound, read-out: % inhibition of the release of 3-hydroxy-3-methyl-hexanoic acid
[5] = AX20, preincubation 4 h, 100 ppm test compound, read-out: % inhibition of the release of 3-hydroxy-3-methyl-hexanoic acid
[6] = AX20, preincubation 8 h, 10 ppm test compound, read-out: % inhibition of the release of 3-hydroxy-3-methyl-hexanoic acid
[7] = AX20, preincubation 8 h, 100 ppm test compound, read-out: % inhibition of the release of 3-hydroxy-3-methyl-hexanoic acid
[8] = AX20, preincubation 24 h, 10 ppm test compound, read-out: % inhibition of the release of 3-hydroxy-3-methyl-hexanoic acid
[9] = AX20, preincubation 24 h, 100 ppm test compound, read-out: % inhibition of the release of 3-hydroxy-3-methyl-hexanoic acid
[10] = AX20, 100 ppm test compound, method of example 2, preincubation time not stated, read-out: % Inhibition of release of 3-hydroxy-3-methyl-hexanoic acid (100 ppm test compound)

What does the source list for `CCCCC(CC)COC(=O)N[C@@H](CCC(N)=O)C(=O)O` (stereo partly drawn) [Compound II, reference compound]?
inhibition at 10 ppm (Corynebacterium Ax 20; [2]): 2.8%; inhibition at 100 ppm (Corynebacterium Ax 20; [3]): 33.4%; inhibition at 500 ppm (Corynebacterium Ax 20; AX20, preincubation 0.5 h): 76.6%; inhibition at 1000 ppm (Corynebacterium Ax 20; AX20, preincubation 0.5 h): 83%; inhibition at 10 ppm (Corynebacterium Ax 20; [4]): -4.4%; inhibition at 100 ppm (Corynebacterium Ax 20; [5]): -25.2%; inhibition at 500 ppm (Corynebacterium Ax 20; AX20, preincubation 4 h): 59.9%; inhibition at 1000 ppm (Corynebacterium Ax 20; AX20, preincubation 4 h): 79.5%; inhibition at 10 ppm (Corynebacterium Ax 20; [6]): 8.3%; inhibition at 100 ppm (Corynebacterium Ax 20; [7]): -9.8%; inhibition at 500 ppm (Corynebacterium Ax 20; AX20, preincubation 8 h): -5.6%; inhibition at 1000 ppm (Corynebacterium Ax 20; AX20, preincubation 8 h): 41.3%; inhibition at 10 ppm (Corynebacterium Ax 20; [8]): -1%; inhibition at 100 ppm (Corynebacterium Ax 20; [9]): -13.3%; inhibition at 500 ppm (Corynebacterium Ax 20; AX20, preincubation 24 h): -28.8%; inhibition at 1000 ppm (Corynebacterium Ax 20; AX20, preincubation 24 h): -23.1%; kind of inhibition (true inhibitor or alternative substrate) (Corynebacterium Ax 20): alternative substrate; IC 50 (Concentration for 50% inhibition of malodour release) (Corynebacterium Ax 20; preincubation time 0.5 h): 253.3 ppm; IC 50 (Concentration for 50% inhibition of malodour release) (Corynebacterium Ax 20; preincubation time 4 h): 387.2 ppm; IC 50 (Concentration for 50% inhibition of malodour release) (Corynebacterium Ax 20; preincubation time 8 h): >1000 ppm; IC 50 (Concentration for 50% inhibition of malodour release) (Corynebacterium Ax 20; preincubation time 24 h): >>1000 ppm

With `CCCCC(CC)CNC(=O)N[C@@H](CCC(N)=O)C(=O)O` (stereo partly drawn) [Compound Ia, N2-[(2-ethylhexylamino)carbonyl]-L-glutamine] as the compound, how does the inhibition at 10 ppm (Ax52; preincubation 0.5 h) read?
Its inhibition at 10 ppm is 77%.

What about the inhibition at 100 ppm (Ax52; preincubation 0.5 h) of the same compound?
The inhibition at 100 ppm was 83%.

What about the inhibition at 10 ppm (Ax52; preincubation 2 h) of the same compound?
Its inhibition at 10 ppm is 86%.

What about the inhibition at 100 ppm (Ax52; preincubation 2 h) of the same compound?
Its inhibition at 100 ppm is 94%.

And the inhibition at 10 ppm (Ax73; preincubation 0.5 h)?
The inhibition at 10 ppm was 107%.

And the inhibition at 100 ppm (Ax73; preincubation 0.5 h)?
Its inhibition at 100 ppm is 87%.

What about the inhibition at 10 ppm (Ax73; preincubation 2 h) of the same compound?
The inhibition at 10 ppm was 70%.

What about the inhibition at 100 ppm (Ax73; preincubation 2 h) of the same compound?
Its inhibition at 100 ppm is 94%.

And the inhibition at 10 ppm (Ax30; preincubation 0.5 h)?
The inhibition at 10 ppm was 95%.

What about the inhibition at 100 ppm (Ax30; preincubation 0.5 h) of the same compound?
The inhibition at 100 ppm was 100%.

What about the inhibition at 10 ppm (Ax30; preincubation 2 h) of the same compound?
Its inhibition at 10 ppm is 93%.

What about the inhibition at 100 ppm (Ax30; preincubation 2 h) of the same compound?
The inhibition at 100 ppm was 100%.

What about the inhibition at 10 ppm (Ax43; preincubation 0.5 h) of the same compound?
Its inhibition at 10 ppm is 93%.

And the inhibition at 100 ppm (Ax43; preincubation 0.5 h)?
The inhibition at 100 ppm was 97%.

And the inhibition at 10 ppm (Ax43; preincubation 2 h)?
Its inhibition at 10 ppm is 97%.

What about the inhibition at 100 ppm (Ax43; preincubation 2 h) of the same compound?
The inhibition at 100 ppm was 99%.

And the inhibition at 10 ppm ([1]; preincubation 0.5 h)?
Its inhibition at 10 ppm is 84.6%.

And the inhibition at 100 ppm ([1]; preincubation 0.5 h)?
The inhibition at 100 ppm was 89.6%.

And the inhibition at 10 ppm ([1]; preincubation 2 h)?
The inhibition at 10 ppm was 79.2%.

And the inhibition at 100 ppm ([1]; preincubation 2 h)?
The inhibition at 100 ppm was 94.6%.

What about the “activity in different bacterial species” value ([1]; conclusion from Table 4) of the same compound?
The value was “active in all bacterial species”.

What about the “inhibitory activity compared to compound II” value (Corynebacterium Ax 20; 0.5 h preincubation time) of the same compound?
The value was over 25 fold.

What about the “inhibitory activity compared to compound II” value (Corynebacterium Ax 20; 8 h preincubation time) of the same compound?
The value was over 100 times.

What about the “inhibition of malodour release” value (Corynebacterium Ax 20; 10 ppm combined with Cosmocil CQ 100 ppm) of the same compound?
The value was 58.8.

And the “inhibition of malodour release” value (Corynebacterium Ax 20; 10 ppm combined with Cosmocil CQ 200 ppm)?
The value was 75.6.

What about the “inhibition of malodour release” value (Corynebacterium Ax 20; 10 ppm combined with Cosmocil CQ 500 ppm) of the same compound?
Its value is 85.2.

And the “inhibition of malodour release” value (Corynebacterium Ax 20; 100 ppm combined with Cosmocil CQ 100 ppm)?
Its value is 85.9.

And the “inhibition of malodour release” value (Corynebacterium Ax 20; 100 ppm combined with Cosmocil CQ 200 ppm)?
Its value is 95.6.

What about the inhibition at 100 ppm (Corynebacterium Ax 20; [10]) of the same compound?
The inhibition at 100 ppm was 79.8%.

What about the inhibition at 10 ppm (Corynebacterium Ax 20; AX20, Ax20, preincubation 0.5 h, 10 ppm, read-out: % inhibition of release of 3-hydroxy-3-methyl-hexanoic acid) of the same compound?
Its inhibition at 10 ppm is 51%.

What about the inhibition at 100 ppm (Corynebacterium Ax 20; AX20, Ax20, preincubation 0.5 h, 100 ppm, read-out: % inhibition of release of 3-hydroxy-3-methyl-hexanoic acid) of the same compound?
Its inhibition at 100 ppm is 81%.

And the inhibition at 10 ppm (Corynebacterium Ax 20; AX20, Ax20, preincubation 2 h, 10 ppm, read-out: % inhibition of release of 3-hydroxy-3-methyl-hexanoic acid)?
The inhibition at 10 ppm was 50%.

What about the inhibition at 100 ppm (Corynebacterium Ax 20; AX20, Ax20, preincubation 2 h, 100 ppm, read-out: % inhibition of release of 3-hydroxy-3-methyl-hexanoic acid) of the same compound?
The inhibition at 100 ppm was 86%.

What about the inhibition at 10 ppm (Corynebacterium Ax 20; AX20, Compound Ia, 10 ppm alone (Cosmocil CQ 0 ppm), read-out: inhibition of malodour release) of the same compound?
Its inhibition at 10 ppm is 61%.

What about the inhibition at 100 ppm (Corynebacterium Ax 20; AX20, Compound Ia, 100 ppm alone (Cosmocil CQ 0 ppm), read-out: inhibition of malodour release) of the same compound?
Its inhibition at 100 ppm is 75.8%.

What about the inhibition at 10 ppm (Corynebacterium Ax 20; [2]) of the same compound?
Its inhibition at 10 ppm is 61%.

And the inhibition at 100 ppm (Corynebacterium Ax 20; [3])?
The inhibition at 100 ppm was 75.8%.

And the inhibition at 500 ppm (Corynebacterium Ax 20; AX20, preincubation 0.5 h)?
The inhibition at 500 ppm was 92.4%.

And the inhibition at 1000 ppm (Corynebacterium Ax 20; AX20, preincubation 0.5 h)?
Its inhibition at 1000 ppm is 92.5%.

And the inhibition at 10 ppm (Corynebacterium Ax 20; [4])?
Its inhibition at 10 ppm is 52.2%.

And the inhibition at 100 ppm (Corynebacterium Ax 20; [5])?
Its inhibition at 100 ppm is 81.2%.

And the inhibition at 500 ppm (Corynebacterium Ax 20; AX20, preincubation 4 h)?
The inhibition at 500 ppm was 100%.

And the inhibition at 1000 ppm (Corynebacterium Ax 20; AX20, preincubation 4 h)?
The inhibition at 1000 ppm was 91.5%.

What about the inhibition at 10 ppm (Corynebacterium Ax 20; [6]) of the same compound?
Its inhibition at 10 ppm is 65.2%.

And the inhibition at 100 ppm (Corynebacterium Ax 20; [7])?
The inhibition at 100 ppm was 86%.

What about the inhibition at 500 ppm (Corynebacterium Ax 20; AX20, preincubation 8 h) of the same compound?
Its inhibition at 500 ppm is 100%.

What about the inhibition at 1000 ppm (Corynebacterium Ax 20; AX20, preincubation 8 h) of the same compound?
The inhibition at 1000 ppm was 91.8%.

What about the inhibition at 10 ppm (Corynebacterium Ax 20; [8]) of the same compound?
The inhibition at 10 ppm was 19.9%.

What about the inhibition at 100 ppm (Corynebacterium Ax 20; [9]) of the same compound?
The inhibition at 100 ppm was 83.2%.

And the inhibition at 500 ppm (Corynebacterium Ax 20; AX20, preincubation 24 h)?
The inhibition at 500 ppm was 100%.

What about the inhibition at 1000 ppm (Corynebacterium Ax 20; AX20, preincubation 24 h) of the same compound?
The inhibition at 1000 ppm was 89.6%.

What about the “kind of inhibition (true inhibitor or alternative substrate)” value (Corynebacterium Ax 20) of the same compound?
Its value is “true inhibitor”.

And the efficacy as inhibitors (Corynebacterium Ax 20)?
Its efficacy as inhibitors is “particularly good efficacy as inhibitors”.

And the “IC 50 (Concentration for 50% inhibition of malodour release)” value (Corynebacterium Ax 20; preincubation time 0.5 h)?
Its value is under 10 ppm.

What about the “IC 50 (Concentration for 50% inhibition of malodour release)” value (Corynebacterium Ax 20; preincubation time 4 h) of the same compound?
The value was under 10 ppm.

What about the “IC 50 (Concentration for 50% inhibition of malodour release)” value (Corynebacterium Ax 20; preincubation time 8 h) of the same compound?
Its value is under 10 ppm.

What about the “IC 50 (Concentration for 50% inhibition of malodour release)” value (Corynebacterium Ax 20; preincubation time 24 h) of the same compound?
Its value is 52.8 ppm.

How did the inhibition at 100 ppm (Corynebacterium Ax 20; [10]) turn out when `NC(=O)CC[C@H](NC(=O)NCc1ccccc1)C(=O)O` [Compound Ib, N2-[(benzylamino)carbonyl]-L-glutamine] was run?
The inhibition at 100 ppm was 61%.

And the efficacy as inhibitors (Corynebacterium Ax 20)?
Its efficacy as inhibitors is “particularly good efficacy as inhibitors”.

`NC(=O)CC[C@H](NC(=O)Nc1cccc(Cc2ccccc2)c1)C(=O)O` [Example 1c, N2-[(3-benzylphenylamino)carbonyl]-L-glutamine] was tested. Which inhibition at 100 ppm (Corynebacterium Ax 20; [10]) did it give?
The inhibition at 100 ppm was 71%.
